Laboratory results reported in patent publication US9969766B2, “20(R)-ginsenoside Rg3 polyacylated derivatives, preparation and application thereof” (priority 2014, dated 2018).

Key:
[1] = test system: human stomach cancer MGC cells; assay: Human stomach cancer MGC in-situ inoculation, survival; settings: 100 mg/kg/d, ip × 2qod
From the text: (§1) human breast cancer Bcap-37 model, human lung cancer A549 model, human intestinal cancer LOVO model, human stomach cancer MGC model and human liver cancer QGY model, with tumor cell lines being of the second generation or more, mouse B16 melanoma cell line, mouse Lewis lung cancer model, mouse sarcoma s180 model, all passaged and preserved in Pharmacological Division of Shanghai Institute of Pharmaceutical Industry. 3. Experiment Animals Origins: nude mice, 6-week old, 18-22 g/mouse, provided by Laboratory Animal Center of Chinese Academy of Sciences, Shanghai Branch, with certification No. 2001A032. C57BL/6 mice and Kunming mice, 18-22 g/mouse, provided by Laboratory Animal Center of Chinese Academy of Sciences, Shanghai Branch, with certification SYXK (Shanghai) 2004-0015. Gender: male or female, the same gender for each batch in experiment Animal numbers: 10 mice and 10 nude mice for each of positive control group and test group in experiment, and 20 for negative control group. 4. Experiment Design Dose Settings: doses for 20(R)-ginsenoside Rg3 octo-acetate, 20(R)-ginsenoside Rg3 octo-n-butyrate and 20(R)-ginsenoside Rg3 octo-n-propionate were set as high-dose group (0.3 mg/kg/d), medium-dose group (0.06 mg/kg/d), and low-dose group (0.012 mg/kg/d). Dosage regimen: oral administration, twice daily. human tumor model and cell-inoculated mouse model: po×14 bid; mouse tumor-inoculated model: po×10 bid. Control Trial: negative control group: given with the same volume of 5% CMC-Na as the test group, and the same dosage regimen as the test group. positive control group: Cyclophosphamide CTX 30 mg/kg, MMC 2 mg/kg and 5Fu 30 mg/kg by intraperitoneal or intravenous administration, once daily, for seven consecutive days. 5. Experiment Method and Key Steps 5.1 Anti-Tumor Test 5.1.1 Subcutaneous Inoculation Model

[2] = test system: mouse Lewis lung cancer; assay: Mouse Lewis lung cancer (subcutaneous inoculation) metastasis model; settings: 100 mg/kg/d, ip × 2qod
From the text: as §1
(§2) Tumor cells of vigorous growth stage were taken under sterile condition and made into cell suspensions of about 1-2×10^7/ml by homogenization, the suspensions were inoculated subcutaneously at 0.2 ml/mouse in host mice and repeated on the next day according to the experiment design, the animals in each group were slaughtered after about three weeks, the tumors were collected and weighed, and the tumor inhibition rates were calculated according to the following equation: tumor inhibition rate %=[(average tumor weight of control group-average tumor weight of treatment group)/average tumor weight of control group]×100%

[3] = test system: human intestinal cancer LOVO cells; settings: 100 mg/kg/d, ip × 2qod
From the text: as §1, with “MMC 2 mg/kg and 5Fu 30 mg/kg by intraperitoneal or intravenous administration, once daily, for seven consecutive days.” left out
LOVO intestinal cancer cells (cultured in vitro) of logarithmic growth stage were taken under sterile condition and prepared into cell suspensions of about 1.8×10^7/ml using RPMI1640 culture medium as diluent. The nude mice were subjected to general anesthesia and cut in belly after routine disinfection to belly skin, the spleens were taken out and inoculated with LOVO intestinal cancer cell suspensions (0.05 ml/mouse) and then restored, the incisions were sutured, and the mice were placed in the cages and then put in the laminar flow rack.

[4] = test system: mouse Lewis lung cancer; assay: Mouse Lewis lung cancer, toe subcutaneous inoculation, anti-tumor test; settings: 100 mg/kg/d, ip × 14qod
From the text: as §1, with “MMC 2 mg/kg and 5Fu 30 mg/kg by intraperitoneal or intravenous administration, once daily, for seven consecutive days.” left out
as §2

[5] = test system: human liver cancer QGY cells; assay: Human liver cancer QGY liver in-situ inoculation, survival; settings: 100 mg/kg/d, ip × 2qod
From the text: as §1
Under sterile condition, the in vivo passage of the second generation of QGY tumor source of vigorous growth stage was prepared into cell suspensions of about 1-2×10^7/ml by homogenization (1:6), and the homogenates were filtered using 100-mesh stainless steel screen, getting ready for use. The nude mice were disinfected routinely and anaesthetized and cut at the xiphoid in the middle of the abdominal cavity to expose the liver, the cell suspensions (0.05 ml) were injected into liver parenchyma using imported 28 ga ½ ml syringes, the abdominal cavity was closed and then sutured layer by layer. The nude mice were fed in the laminar flow rack, with all the feed, packing, cage and contact instruments being sterilized under high pressure before use.

[6] = test system: mouse sarcoma S180 cells; assay: Mouse sarcoma S180 metastasis model; settings: 100 mg/kg/d, ip × 2qod
From the text: as §1

[7] = test system: human lung cancer A549 cells; assay: Human lung cancer A549 (subcutaneous inoculation) metastasis model; settings: 100 mg/kg/d, ip × 2qod
[8] = test system: mouse melanoma B16 cells; assay: Mouse melanoma B16 tail vein inoculation, lung metastasis; settings: 100 mg/kg/d, ip × 2qod
From the text: as §1

[9] = test system: human breast cancer Bcap-37 cells; assay: Human breast cancer Bcap-37 subcutaneous inoculation in nude mice; settings: 100 mg/kg/d, ip × 2qod
From the text: as §1, with “Cyclophosphamide CTX 30 mg/kg, MMC 2 mg/kg and 5Fu 30 mg/kg by intraperitoneal or intravenous administration, once daily, for seven consecutive days.” left out
as §2
The same operation was repeated in human tumor xenograft model, except that the feed, packing, cage and contact instruments were all sterilized under high pressure before use and the nude mice were fed in a laminar flow rack. The tumors and tumor-bearing animal weight gains were dynamically measured (tumor size measured using caliper: long diameter/a, short diameter/b, and tumor bulk=a×b^2/2).

[10] = cited from earlier work
[11] = Solubility of the isolated products; format: physicochemical

## O=P1(N(CCCl)CCCl)NCCCO1 (centres unmarked) [CTX, cyclophosphamide, reference compound]
[1]
  Animal body weight (g) Start: 19.5 g
  Animal body weight (g) end: 21.1 g
  Average survival (d) X ± SD: 41.22 ± 3.5 days
  Life extension rate T/C × %: 181.01%
[2]
  Animal body weight (g) Start: 19.4 g
  Animal body weight (g) end: 21.0 g
  Anti-metastasis rate %: 82.12%
  Lung clone numbers (mice) X ± SD: 0.50 ± 0.09
[3]
  Animal body weight (g) Start: 19.5 g
  Animal body weight (g) end: 21.1 g
  Average survival (d) X ± SD: 29.36 ± 3.3 days
  Life extension rate T/C × %: 214.91%
[4]
  Animal body weight (g) Start: 20.2 g
  Animal body weight (g) end: 21.9 g
  Tumor inhibition rate %: 93.92%
  Tumor-bearing toe weight (g) X ± SD: 0.0541 ± 0.02 g
[5]
  Animal body weight (g) Start: 19.1 g
  Animal body weight (g) end: 21.0 g
  Average survival (d) X ± SD: 37.23 ± 3.4 days
  Life extension rate T/C × %: 159.44%
[6]
  Animal body weight (g) Start: 20.2 g
  Animal body weight (g) end: 21.0 g
  Anti-metastasis rate %: 93.84%
  Lung clone numbers (mice) X ± SD: 0.18 ± 2.1
[7]
  Animal body weight (g) Start: 19.6 g
  Animal body weight (g) end: 21.3 g
  Anti-metastasis rate %: 85.10%
  Lung clone numbers (mice) X ± SD: 0.29 ± 0.12
[8]
  Animal body weight (g) Start: 20.1 g
  Animal body weight (g) end: 21.4 g
  Anti-metastasis rate %: 95.30%
  Lung clone numbers (mice) X ± SD: 2.26 ± 2.8
[9]
  Animal body weight (g) Start: 20.4 g
  Animal body weight (g) end: 22.0 g
  Tumor inhibition rate %: 89.90%
  Tumor weight (g) X ± SD: 0.130 ± 0.06 g

## CC(C)=CCC[C@@](C)(O)[C@H]1CC[C@]2(C)[C@@H]1[C@H](O)C[C@@H]1[C@@]3(C)CC[C@H](O[C@@H]4O[C@H](CO)[C@@H](O)[C@H](O)[C@H]4O[C@@H]4O[C@H](CO)[C@@H](O)[C@H](O)[C@H]4O)C(C)(C)[C@@H]3CC[C@]12C [20 (R)-ginsenoside Rg3, 20 (R)-Ginsenoside Rg3]
[10]; petroleum ether, chloroform and other low polarity or non-polar solvent
  Solubility in low polarity or non-polar solvent: not soluble
[10]; pyridine, ethanol solution (50%˜70%), strong acid aqueous solutions (pH<2), strong alkaline solutions (pH>10)
  Solubility in pyridine, ethanol solution, strong acid and strong alkaline solutions: easily soluble
[10]; water and other high polarity solvents
  Solubility in water and other high polarity solvents: not soluble

## CCCCCC(=O)OC[C@H]1O[C@@H](OC2CC[C@]3(C)C(CC[C@@]4(C)C3C[C@H](OC(=O)CCCCC)C3C([C@@](C)(O)CCC=C(C)C)CC[C@@]34C)C2(C)C)[C@H](OC2O[C@H](COC(=O)CCCCC)[C@@H](OC(=O)CCCCC)[C@H](OC(=O)CCCCC)[C@H]2OC(=O)CCCCC)[C@@H](OC(=O)CCCCC)[C@@H]1OC(=O)CCCCC (stereo partly drawn) [20(R)-Ginsenoside Rg3 octo-n-hexanoate]
[11]; ethanol
  Solubility in ethanol: soluble
[11]; water
  Solubility in water: soluble
